{
  "source": "patent US9457044B2",
  "about": "“Methods and compositions for wound healing” (CoDa Therapeutics, Inc., priority 2006, dated 2016)",
  "key": {"granulation tissue": {"system": "granulation tissue", "experiment": "Granulation tissue area (H&E)", "type": "in vivo, mice", "procedure": "(§1) Male, 8 week old, ICR mice were used in the following experiments. All the mice were kept under specific pathogen-free conditions in an environmentally controlled clean room at University College London and all the experiments were carried out under UK Home Office regulations. Mice were anaesthetized by halothane inhalation. Four full-thickness excisional wounds of 6 mm diameter were made on the shaved back on either side of the dorsal midline with a 6 mm biopsy punch (Kai Industries). To each pair of wounds a single topical application of 50 μl of 1 μM Cx43 as ODN (SEQ. ID No. 2) (Sigma-Genosys) in 30% Pluronic F-127 gel (Sigma-Aldrich), chilled on ice, was made to one wound, and an identical application of 1 μM sense control sODNs was made to the other. […] R. and Becker, D. L. (2003). Targeting connexin 43 expression accelerates the rate of wound repair. Curr Biol 13, 1697-703). Each wound region was digitally photographed at the indicated time intervals, and the areas of the wounds were calculated. All wound areas were expressed as percentages of the initial wound areas. In some series of experiments, wounds and their surrounding area, including the scab and epithelial margins, were harvested with an 8 mm biopsy punch (Kai Industries) at the indicated time intervals after mice were killed with an overdose of chloroform. A minimum of eight mice were used for each time point examined. […]"}, "apoptotic cells": {"system": "apoptotic cells", "experiment": "TUNEL staining of granulation tissue", "type": "in vivo, mice", "conditions": "5, 7 and 10 days after wounding", "procedure": "as §1, with “areas.” for “areas. In some series of experiments, wounds and their surrounding area, including the scab and epithelial margins, were harvested with an 8 mm biopsy punch (Kai Industries) at the indicated time intervals after mice were killed with an overdose of chloroform. A minimum of eight mice were used for each time point examined.”\nWound tissues were fixed in 4% formaldehyde buffered with PBS, and embedded in paraffin and sectioned. […] TUNEL stained section were imaged and positive cells were counted in the granulation tissue in three random fields, in the two sides and center of each wound (each field was 0.332 mm2)."}, "TNF-α mRNA": {"system": "TNF-α mRNA", "experiment": "Real-Time PCR of TNF-α at wound sites", "type": "in vivo, mice", "conditions": "day 7; P<0.05 versus control sODN", "procedure": "as §1, with “areas.” for “areas. In some series of experiments, wounds and their surrounding area, including the scab and epithelial margins, were harvested with an 8 mm biopsy punch (Kai Industries) at the indicated time intervals after mice were killed with an overdose of chloroform. A minimum of eight mice were used for each time point examined.”\n(§2) Gene specific primers and probe were obtained as TaqMan® Gene Expression Assays (Applied Biosystems) for Cx43, Ccl2, Co1α1, TNFα and TGFβ1. […] Each sample was analyzed in duplicate. […]"}, "Cx43 mRNA": {"system": "Cx43 mRNA", "experiment": "Real-Time PCR of Cx43 mRNA at skin wound sites", "type": "in vivo, mice", "procedure": "(§3) Male, 8 week old, ICR mice were used in the following experiments. All the mice were kept under specific pathogen-free conditions in an environmentally controlled clean room at University College London and all the experiments were carried out under UK Home Office regulations. Mice were anaesthetized by halothane inhalation. Four full-thickness excisional wounds of 6 mm diameter were made on the shaved back on either side of the dorsal midline with a 6 mm biopsy punch (Kai Industries). To each pair of wounds a single topical application of 50 μl of 1 μM Cx43 as ODN (SEQ. ID No. 2) (Sigma-Genosys) in 30% Pluronic F-127 gel (Sigma-Aldrich), chilled on ice, was made to one wound, and an identical application of 1 μM sense control sODNs was made to the other. […] R. and Becker, D. L. (2003). Targeting connexin 43 expression accelerates the rate of wound repair. Curr Biol 13, 1697-703). Each wound region was digitally photographed at the indicated time intervals, and the areas of the wounds were calculated. All wound areas were expressed as percentages of the initial wound areas. In some series of experiments, wounds and their surrounding area, including the scab and epithelial margins, were harvested with an 8 mm biopsy punch (Kai Industries) at the indicated time intervals after mice were killed with an overdose of chloroform. A minimum of eight mice were used for each time point examined.\nTotal RNA was extracted from skin wound samples using TRIzol Reagent (Invitrogen), according to the manufacturer's instructions. Ten micrograms of total RNA was reverse-transcribed into cDNA using the SuperScript First-Strand Synthesis System for RT-PCR (Invitrogen).\nGene specific primers and probe were obtained as TaqMan® Gene Expression Assays (Applied Biosystems) for Cx43, Ccl2, Co1α1, TNFα and TGFβ1. The enzyme and buffer system was purchased as TaqMan® Universal PCR Master Mix (Applied Biosystems). Each sample was analyzed in duplicate. Amplification and real-time detection was performed in the DNA Engine Opticon®2 (MJ Research Inc.). […]"}, "Cx43 protein": {"system": "Cx43 protein", "conditions": "within two hours; Becker 1999, McGonnell 2001, Qiu 2003; cited from earlier work"}, "Ccl2 mRNA": {"system": "Ccl2 mRNA", "experiment": "Real-Time PCR of Ccl2 at wound sites", "type": "in vivo, mice", "conditions": "day 2; P<0.05 versus control sODN", "procedure": "as §1, with “areas.” for “areas. In some series of experiments, wounds and their surrounding area, including the scab and epithelial margins, were harvested with an 8 mm biopsy punch (Kai Industries) at the indicated time intervals after mice were killed with an overdose of chloroform. A minimum of eight mice were used for each time point examined.”\nas §2"}, "BrdU-positive cells": {"system": "BrdU-positive cells", "experiment": "BrdU labeling of proliferating cells at wound sites", "type": "in vivo, mice", "procedure": "as §3\nIn another experiment, wounded mice were injected intraperitoneally with 1 ml of BrdU (Sigma) in PBS solution (1 mg/ml) 2 hours before harvesting on days 1, 2, and 7. Wound tissues were fixed in 4% formaldehyde buffered with PBS, and embedded in paraffin. Deparaffinized sections (6 μm thick) were treated with a HistoMouse™-Plus Kit (ZYMED Laboratories, Inc) to reduce background signals according to manufacturer's instructions. […]\nA treatment-blinded observer counted MPO-positive neutrophils and F4/80-positive macrophages in the wound bed (defined as the area surrounded by unwounded skin, fascia, regenerated epidermis, and eschar) in 3 random high-power fields of 0.332 mm^2. BrdU-positive cells in the wound margin and the nascent epidermis regions of each immunohistochemically stained section were counted as described previously and expressed per […] of epidermis (Mori, R., Kondo, T., Nishie, T., Ohshima, T. and Asano, M. (2004). Impairment of skin wound healing in beta-1,4-galactosyltransferase-deficient mice with reduced leukocyte recruitment. Am J Pathol 164, 1303-14). Number of fibroblast like cells (phalloidin-positive cells with spindle-shape body) at the wound margin were counted in high-power fields also (each field was 0.332 mm^2). […] Images were made binary at a standard threshold and positive pixels were counted using Image J (NIH Image)."}},
  "data": [
    {"sequence": "GTAATTGCGGCAGGAGGAATTGTTTCTGTC (antisense GTAATTGCGGCAGGAGGAATTGTTTCTGTC; in Pluronic F-127 gel, further chemistry not given here) [Cx43 asODN]", "values": [
      {"measurement": "granulation tissue area versus untreated tissue", "setting": "granulation tissue; day 5, difference not significant", "value": "slightly smaller"},
      {"measurement": "granulation tissue area versus control sODN treated wounds", "setting": "granulation tissue; days 7, 10 and 14 after wounding", "value": "significantly (*P<0.05; **P<0.01) smaller"},
      {"measurement": "numbers of TUNEL positive cells, control versus treated", "setting": "apoptotic cells", "value": "no significant differences"},
      {"measurement": "expression level of TNF-α mRNA", "setting": "TNF-α mRNA", "value": "significantly reduced"},
      {"measurement": "expression of Cx43 mRNA relative to GAPDH", "setting": "Cx43 mRNA; 7 days after the injury", "value": 4.6, "unit": "units"},
      {"measurement": "reduction of Cx43 mRNA versus control sODN-treated wounds", "setting": "Cx43 mRNA; one day after injury, P<0.05", "value": 37, "unit": "%"},
      {"measurement": "expression of Cx43 mRNA relative to GAPDH", "setting": "Cx43 mRNA; one day after injury, single topical 50 μl of 1 μM in 30% Pluronic F-127 gel", "value": 2.95, "unit": "units"},
      {"measurement": "knockdown of Cx43 protein at the site of delivery", "setting": "Cx43 protein", "value": "significant knockdown"},
      {"measurement": "expression level of Ccl2 mRNA", "setting": "Ccl2 mRNA", "value": "significantly reduced"},
      {"measurement": "keratinocyte proliferation in the epidermal wound margin, control versus treated", "setting": "BrdU-positive cells; FIG. 2E", "value": "little difference"},
      {"measurement": "BrdU-positive cells in the dermal wound margin", "setting": "BrdU-positive cells; FIG. 2G", "value": "slightly more cells"},
      {"measurement": "BrdU-positive cells in the nascent epidermis", "setting": "BrdU-positive cells; after both 2 days and 7 days", "value": "significantly increased numbers"},
      {"measurement": "BrdU-positive cells in the granulation tissue", "setting": "BrdU-positive cells; days 1 and 2", "value": "significantly more"}
    ]}
  ]
}
